Data taken from US12091405B2, “Substituted pyrazole compounds as indoleamine 2,3-dioxygenase inhibitors” (Merck Sharp & Dohme LLC, priority 2018, dated 2024).

Each molecule was assayed against IDO1 (Homo sapiens, UniProt P14902) (assay: IDO1 Cellular Assay in HeLa Cells Stimulated with IFNγ). Conditions: IFNγ 100 ng/mL, 300 uM L-tryptophan, about 48 hours, fluorescence readout, read-out: IDO1 HELA Cell Assay, IC50.
Chain of IDO1 (P14902 whole entry): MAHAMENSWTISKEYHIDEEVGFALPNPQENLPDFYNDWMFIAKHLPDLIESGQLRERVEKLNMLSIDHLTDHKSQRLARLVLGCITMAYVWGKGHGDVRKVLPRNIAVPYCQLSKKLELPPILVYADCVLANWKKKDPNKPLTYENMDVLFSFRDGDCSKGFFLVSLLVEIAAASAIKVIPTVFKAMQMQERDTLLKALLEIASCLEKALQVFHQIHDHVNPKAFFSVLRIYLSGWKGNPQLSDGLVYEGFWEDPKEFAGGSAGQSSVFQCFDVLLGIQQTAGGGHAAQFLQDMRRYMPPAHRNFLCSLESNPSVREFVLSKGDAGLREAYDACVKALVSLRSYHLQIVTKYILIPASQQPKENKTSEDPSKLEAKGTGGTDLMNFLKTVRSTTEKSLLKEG
Type: cell-based
For Cc1c(C2CCN(C(=O)Cn3nc(C(=O)N4CCO[C@@H](CO)C4)c4c3C[C@H]3C[C@@H]43)CC2)cccc1C(F)(F)F [Example 5, 2-((3bR,4aR)-3-((R)-2-(hydroxymethyl)morpholine-4-carbonyl)-3b,4,4a,5-tetrahydro-1H-cyclopropa[3,4]cyclopenta[1,2-c]pyrazol-1-yl)-1-(4-(2-methyl-3-(trifluoromethyl)phenyl)piperidin-1-yl)ethanone], the IC50 was 1.7 nM. Cc1cccc(C2CCN(C(=O)Cn3nc(C(=O)N4CCC(O)CC4)c4c3CCCC4)CC2)c1C [Example 34, 1-(4-(2,3-dimethylphenyl)piperidin-1-yl)-2-(3-(4-hydroxypiperidine-1-carbonyl)-4,5,6,7-tetrahydro-1H-indazol-1-yl)ethanone] showed an IC50 of 1.2 nM. With Cc1cccc(C2CCN(C(=O)Cn3nc(C(=O)N4CC[C@H](O)[C@@H](F)C4)c4c3C[C@H]3C[C@@H]43)CC2)c1C [Example 23, 1-[4-(2,3-dimethylphenyl)piperidin-1-yl]-2-{(3bR,4aR)-3-[(3S,4S)-3-fluoro-4-hydroxypiperidine-1-carbonyl]-3b,4,4a,5-tetrahydro-1H-cyclopropa[3,4]cyclopenta[1,2-c]pyrazol-1-yl}ethan-1-one] the IC50 was 1.1 nM. For C[C@@H]1CN(C(=O)c2nn(CC(=O)N3CCC(c4cccc(OC(F)(F)F)c4)CC3)c3c2CCC3)C[C@H](C)O1 [Example 160, 2-{3-[(2R,6S)-2,6-dimethylmorpholine-4-carbonyl]-5,6-dihydrocyclopenta[c]pyrazol-1(4H)-yl}-1-{4-[3-(trifluoromethoxy)phenyl]piperidin-1-yl}ethan-1-one], the IC50 was 162 nM. Work on C[C@@H]1CN(C(=O)c2nn(CC(=O)N3CCC(c4ccc5c(c4)CCO5)CC3)c3c2CCC3)C[C@H](C)O1 [Example 93, 1-[4-(2,3-dihydro-1-benzofuran-5-yl)piperidin-1-yl]-2-{3-[(2R,6S)-2,6-dimethylmorpholine-4-carbonyl]-5,6-dihydrocyclopenta[c]pyrazol-1(4H)-yl}ethan-1-one] yielded an IC50 of 17.8 nM. C[C@@H]1CN(C(=O)c2nn(CC(=O)N3CCC(c4ccc(F)c(F)c4)CC3)c3c2CCC3)C[C@H](C)O1 [Example 144, 1-[4-(3,4-difluorophenyl)piperidin-1-yl]-2-{3-[(2R,6S)-2,6-dimethylmorpholine-4-carbonyl]-5,6-dihydrocyclopenta[c]pyrazol-1(4H)-yl}ethan-1-one] was tested, and the IC50 was 104 nM. With Cc1cccc(C2CCN(C(=O)Cn3nc(C(=O)N4CCOCC4)c4c3CCC4)CC2)c1C [Example 46, 1-(4-(2,3-dimethylphenyl)piperidin-1-yl)-2-(3-(morpholine-4-carbonyl)-5,6-dihydrocyclopenta[c]pyrazol-1(4H)-yl)ethan-1-one] the IC50 was 16 nM. C[C@@H]1CN(C(=O)c2nn(CC(=O)N3CCC(c4ccc(F)cc4)CC3)c3c2CCC3)C[C@H](C)O1 [Example 68, 2-{3-[(2R,6S)-2,6-dimethylmorpholine-4-carbonyl]-5,6-dihydrocyclopenta[c]pyrazol-1(4H)-yl}-1-[4-(4-fluorophenyl)piperidin-1-yl]ethan-1-one] gave an IC50 of 71.2 nM. In the case of C[C@@H]1CN(C(=O)c2nn(CC(=O)N3CCC(C)(c4ccccc4)CC3)c3c2CCC3)C[C@H](C)O1 [Example 66, 2-{3-[(2R,6S)-2,6-dimethylmorpholine-4-carbonyl]-5,6-dihydrocyclopenta[c]pyrazol-1(4H)-yl}-1-(4-methyl-4-phenylpiperidin-1-yl)ethan-1-one], the IC50 is reported as 43.5 nM. Molecule Cc1cccc(C2CCN(C(=O)Cn3nc(C(=O)N4CC[C@@H](O)C4)c4c3CCC4)CC2)c1C [Example 51, (R)-1-(4-(2,3-dimethylphenyl)piperidin-1-yl)-2-(3-(3-hydroxypyrrolidine-1-carbonyl)-5,6-dihydrocyclopenta[c]pyrazol-1(4H)-yl)ethan-1-one] has an IC50 of 45.5 nM. In the case of Cc1cc(F)ccc1C1CCN(C(=O)Cn2nc(C(=O)N3CCO[C@H](CO)C3)c3c2CCC3)CC1 [Example 58, (S)-1-(4-(4-fluoro-2-methylphenyl)piperidin-1-yl)-2-(3-(2-(hydroxymethyl)morpholine-4-carbonyl)-5,6-dihydrocyclopenta[c]pyrazol-1(4H)-yl)ethanone], the IC50 is reported as 454 nM. Cc1c(C2CCN(C(=O)Cn3nc(C(=O)N4CCO[C@H](CO)C4)c4c3C[C@H]3C[C@@H]43)CC2)cccc1C(F)(F)F [Example 4, 2-((3bR,4aR)-3-((S)-2-(hydroxymethyl)morpholine-4-carbonyl)-3b,4,4a,5-tetrahydro-1H-cyclopropa[3,4]cyclopenta[1,2-c]pyrazol-1-yl)-1-(4-(2-methyl-3-(trifluoromethyl)phenyl)piperidin-1-yl)ethanone] showed an IC50 of 3 nM. COc1ccc(F)c(C2CCN(C(=O)Cn3nc(C(=O)N4C[C@@H](C)O[C@@H](C)C4)c4c3CCC4)CC2)c1 [Example 156, 2-{3-[(2R,6S)-2,6-dimethylmorpholine-4-carbonyl]-5,6-dihydrocyclopenta[c]pyrazol-1(4H)-yl}-1-[4-(2-fluoro-5-methoxyphenyl)piperidin-1-yl]ethan-1-one] showed an IC50 of 149 nM. Molecule Cc1c(C2CCN(C(=O)Cn3nc(C(=O)N4CCN(C(=O)CO)CC4)c4c3C[C@H]3C[C@@H]43)CC2)cccc1C(F)(F)F [Example 3, 2-hydroxy-1-(4-((3bR,4aR)-1-(2-(4-(2-methyl-3-(trifluoromethyl)phenyl)piperidin-1-yl)-2-oxoethyl)-3b,4,4a,5-tetrahydro-1H-cyclopropa[3,4]cyclopenta[1,2-c]pyrazole-3-carbonyl)piperazin-1-yl)ethanone] has an IC50 of 1.3 nM. In the case of Cc1cccc(C2CCN(C(=O)Cn3nc(C(=O)N4CC[C@@H](O)[C@H](F)C4)c4c3C[C@H]3C[C@@H]43)CC2)c1C [Example 24, 1-[4-(2,3-dimethylphenyl)piperidin-1-yl]-2-{(3bR,4aR)-3-[(3R,4R)-3-fluoro-4-hydroxypiperidine-1-carbonyl]-3b,4,4a,5-tetrahydro-1H-cyclopropa[3,4]cyclopenta[1,2-c]pyrazol-1-yl}ethan-1-one], the IC50 is reported as 1.2 nM. COc1ccccc1C1CCN(C(=O)Cn2nc(C(=O)N3C[C@@H](C)O[C@@H](C)C3)c3c2CCC3)CC1 [Example 75, 2-{3-[(2R,6S)-2,6-dimethylmorpholine-4-carbonyl]-5,6-dihydrocyclopenta[c]pyrazol-1(4H)-yl}-1-[4-(2-methoxyphenyl)piperidin-1-yl]ethan-1-one] gave an IC50 of 195 nM. With C[C@@H]1CN(C(=O)c2nn(CC(=O)N3CCC(c4ccc(F)cc4Cl)CC3)c3c2CCC3)C[C@H](C)O1 [Example 124, 1-[4-(2-chloro-4-fluorophenyl)piperidin-1-yl]-2-{3-[(2R,6S)-2,6-dimethylmorpholine-4-carbonyl]-5,6-dihydrocyclopenta[c]pyrazol-1(4H)-yl}ethan-1-one] the IC50 was 57 nM. C[C@@H]1CN(C(=O)c2nn(CC(=O)N3CCC(c4ccc(F)c(Cl)c4)CC3)c3c2CCC3)C[C@H](C)O1 [Example 100, 1-[4-(3-chloro-4-fluorophenyl)piperidin-1-yl]-2-{3-[(2R,6S)-2,6-dimethylmorpholine-4-carbonyl]-5,6-dihydrocyclopenta[c]pyrazol-1(4H)-yl}ethan-1-one] gave an IC50 of 27.7 nM. Cc1cc(F)cc(C2CCN(C(=O)Cn3nc(C(=O)N4C[C@@H](C)O[C@@H](C)C4)c4c3CCC4)CC2)c1 [Example 90, 2-{3-[(2R,6S)-2,6-dimethylmorpholine-4-carbonyl]-5,6-dihydrocyclopenta[c]pyrazol-1(4H)-yl}-1-[4-(3-fluoro-5-methylphenyl)piperidin-1-yl]ethan-1-one] showed an IC50 of 9.9 nM. For Cc1cc(C)c(C2CCN(C(=O)Cn3nc(C(=O)N4C[C@@H](C)O[C@@H](C)C4)c4c3CCC4)CC2)cc1C [Example 136, 2-{3-[(2R,6S)-2,6-dimethylmorpholine-4-carbonyl]-5,6-dihydrocyclopenta[c]pyrazol-1(4H)-yl}-1-[4-(2,4,5-trimethylphenyl)piperidin-1-yl]ethan-1-one], the IC50 was 85 nM. In the case of [2H]c1c([2H])c([2H])c(C2CCN(C(=O)Cn3nc(C(=O)N4C[C@@H](C)O[C@@H](C)C4)c4c3CCC4)CC2)c([2H])c1[2H] [Example 143, 2-{3-[(2R,6S)-2,6-dimethylmorpholine-4-carbonyl]-5,6-dihydrocyclopenta[c]pyrazol-1(4H)-yl}-1-[4-(~2~H_5_)phenylpiperidin-1-yl]ethan-1-one], the IC50 is reported as 102 nM. For Cc1cc(F)ccc1C1CCN(C(=O)Cn2nc(C(=O)N3CCN(C(=O)CO)CC3)c3c2CCC3)CC1 [Example 57, 1-(4-(4-fluoro-2-methylphenyl)piperidin-1-yl)-2-(3-(4-(2-hydroxyacetyl)piperazine-1-carbonyl)-5,6-dihydrocyclopenta[c]pyrazol-1(4H)-yl)ethanone], the IC50 was 289 nM. Cc1cc(Cl)ccc1C1CCN(C(=O)Cn2nc(C(=O)N3C[C@@H](C)O[C@@H](C)C3)c3c2CCC3)CC1 [Example 106, 1-[4-(4-chloro-2-methylphenyl)piperidin-1-yl]-2-{3-[(2R,6S)-2,6-dimethylmorpholine-4-carbonyl]-5,6-dihydrocyclopenta[c]pyrazol-1(4H)-yl}ethan-1-one] showed an IC50 of 30.3 nM. CCc1ccccc1C1CCN(C(=O)Cn2nc(C(=O)N3C[C@@H](C)O[C@@H](C)C3)c3c2CCC3)CC1 [Example 109, 2-{3-[(2R,6S)-2,6-dimethylmorpholine-4-carbonyl]-5,6-dihydrocyclopenta[c]pyrazol-1(4H)-yl}-1-[4-(2-ethylphenyl)piperidin-1-yl]ethan-1-one] showed an IC50 of 38.2 nM. Molecule C[C@@H]1CN(C(=O)c2nn(CC(=O)N3CCC(c4cc(F)cc(F)c4F)CC3)c3c2CCC3)C[C@H](C)O1 [Example 117, 2-{3-[(2R,6S)-2,6-dimethylmorpholine-4-carbonyl]-5,6-dihydrocyclopenta[c]pyrazol-1(4H)-yl}-1-[4-(2,3,5-trifluorophenyl)piperidin-1-yl]ethan-1-one] has an IC50 of 48.9 nM. C[C@@H]1CN(C(=O)c2nn(CC(=O)N3CCC(c4cc(F)cc(F)c4)CC3)c3c2CCC3)C[C@H](C)O1 [Example 67, 1-[4-(3,5-difluorophenyl)piperidin-1-yl]-2-{3-[(2R,6S)-2,6-dimethylmorpholine-4-carbonyl]-5,6-dihydrocyclopenta[c]pyrazol-1(4H)-yl}ethan-1-one] gave an IC50 of 52.4 nM.
